From ChEMBL document CHEMBL3988442, “University of Dundee, Small-Polar-MMV Screening Library” (2021)
Several values for one entry are separate records, joined by “and”; a condition that tells them apart may be missing. Identical values can stand only once.

Tests used:
[1] = target: T1, Arginase-2, mitochondrial (Homo sapiens, UniProt P78540); experiment: in vitro enzyme assay to detect the production of urea directly proportional to the activity of Arginase II; assay type: functional
T1 sequence (P78540 whole entry): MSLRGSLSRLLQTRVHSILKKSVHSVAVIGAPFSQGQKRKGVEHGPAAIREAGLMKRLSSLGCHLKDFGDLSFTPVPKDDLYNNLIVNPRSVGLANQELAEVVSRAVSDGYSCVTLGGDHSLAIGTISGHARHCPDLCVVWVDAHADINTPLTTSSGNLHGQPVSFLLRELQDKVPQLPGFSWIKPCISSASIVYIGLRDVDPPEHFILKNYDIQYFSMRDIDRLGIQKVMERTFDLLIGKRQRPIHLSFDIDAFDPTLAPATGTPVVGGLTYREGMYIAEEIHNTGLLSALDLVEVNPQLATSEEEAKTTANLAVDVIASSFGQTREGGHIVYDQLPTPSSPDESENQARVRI

[2] = target: Protein translocase subunit SecA (Escherichia coli (strain K12), UniProt P10408); experiment: Assay to Identify E. coli SecA ATPase Inhibitors; assay type: functional
[3] = target: Polyketide synthase Pks13 (Mycobacterium tuberculosis (strain ATCC 25618 / H37Rv), UniProt I6X8D2); experiment: Mycobacterium tuberculosis Polyketide synthase 13 Thioesterase (PKS13); assay type: functional
Lysine--tRNA ligase = Lysine--tRNA ligase (Plasmodium falciparum (isolate 3D7), UniProt Q8IDJ8); experiment: Pf-KRS-1 (Lysyl-RNA Synthetase-1, KRS-1, cytosolic KRS) from Plasmodium falciparum. Inhibitor assay, 384 well plate, luminescence read.; assay type: functional
[4] = target: T2, Coenzyme A biosynthesis bifunctional protein CoaBC (Mycobacterium tuberculosis (strain ATCC 25618 / H37Rv), UniProt P9WNZ1); experiment: Biomol Green assay for MtCoaBC inhibitor, OD650 read; assay type: functional
T2 sequence (P9WNZ1 whole entry): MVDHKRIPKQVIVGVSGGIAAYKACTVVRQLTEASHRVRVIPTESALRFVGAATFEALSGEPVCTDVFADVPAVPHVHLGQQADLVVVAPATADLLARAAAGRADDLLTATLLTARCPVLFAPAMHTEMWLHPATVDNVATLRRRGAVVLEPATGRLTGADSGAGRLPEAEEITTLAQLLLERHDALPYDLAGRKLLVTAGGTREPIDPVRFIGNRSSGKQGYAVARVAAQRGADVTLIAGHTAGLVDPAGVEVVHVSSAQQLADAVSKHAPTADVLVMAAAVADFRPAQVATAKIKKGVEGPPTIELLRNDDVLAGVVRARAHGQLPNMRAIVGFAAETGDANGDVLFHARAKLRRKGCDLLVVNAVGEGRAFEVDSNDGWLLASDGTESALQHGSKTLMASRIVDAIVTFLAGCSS

[5] = target: Chromo domain-containing protein 1 (Saccharomyces cerevisiae (strain ATCC 204508 / S288c) (Baker's yeast), UniProt P32657); experiment: ScCHD-1 Enzyme Inhibition Assay; assay type: functional
[6] = Trypanosoma cruzi proteasome luciferase counter-screen; assay type: functional, N/A
Proteasome subunit beta = target: T3, Proteasome subunit beta (Trypanosoma cruzi, UniProt O96673); experiment: Trypanosoma cruzi proteasome chymotrypsin-like activity (TcProtChymo) assay.; assay type: functional
T3 sequence (O96673 whole entry): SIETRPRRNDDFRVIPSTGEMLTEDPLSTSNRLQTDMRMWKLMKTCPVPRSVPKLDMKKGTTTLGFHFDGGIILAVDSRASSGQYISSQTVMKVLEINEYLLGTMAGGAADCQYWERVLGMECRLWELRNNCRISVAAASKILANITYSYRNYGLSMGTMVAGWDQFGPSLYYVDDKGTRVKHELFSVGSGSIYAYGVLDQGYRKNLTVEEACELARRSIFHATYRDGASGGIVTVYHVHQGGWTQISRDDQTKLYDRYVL

[7] = microbe, parasite or virus in culture; settings: Mycobacterium tuberculosis, 96 h, read-out: pIC50 (converted)
[8] = microbe, parasite or virus in culture; settings: Mycobacterium tuberculosis, 72 h, read-out: pIC50 (converted)
Histidine--tRNA ligase = target: T4, Histidine--tRNA ligase (Leishmania infantum, UniProt A4I591); experiment: Leishmania infantum Histidine tRNA synthetase (LdHisRS); assay type: functional
T4 sequence (A4I591 whole entry): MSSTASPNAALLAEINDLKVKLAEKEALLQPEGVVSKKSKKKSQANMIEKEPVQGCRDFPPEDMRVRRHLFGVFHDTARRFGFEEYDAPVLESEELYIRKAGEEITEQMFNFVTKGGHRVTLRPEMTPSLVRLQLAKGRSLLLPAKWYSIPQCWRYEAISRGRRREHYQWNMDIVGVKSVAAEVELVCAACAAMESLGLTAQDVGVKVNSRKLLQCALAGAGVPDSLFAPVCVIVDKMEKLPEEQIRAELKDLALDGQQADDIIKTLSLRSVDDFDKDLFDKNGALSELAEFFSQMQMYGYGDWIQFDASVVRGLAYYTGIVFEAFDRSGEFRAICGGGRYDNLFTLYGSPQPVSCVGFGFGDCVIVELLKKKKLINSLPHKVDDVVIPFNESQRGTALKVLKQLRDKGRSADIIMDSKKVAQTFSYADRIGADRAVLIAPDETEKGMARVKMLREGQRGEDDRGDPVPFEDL

Sequence of Polyketide synthase Pks13 (I6X8D2 whole entry): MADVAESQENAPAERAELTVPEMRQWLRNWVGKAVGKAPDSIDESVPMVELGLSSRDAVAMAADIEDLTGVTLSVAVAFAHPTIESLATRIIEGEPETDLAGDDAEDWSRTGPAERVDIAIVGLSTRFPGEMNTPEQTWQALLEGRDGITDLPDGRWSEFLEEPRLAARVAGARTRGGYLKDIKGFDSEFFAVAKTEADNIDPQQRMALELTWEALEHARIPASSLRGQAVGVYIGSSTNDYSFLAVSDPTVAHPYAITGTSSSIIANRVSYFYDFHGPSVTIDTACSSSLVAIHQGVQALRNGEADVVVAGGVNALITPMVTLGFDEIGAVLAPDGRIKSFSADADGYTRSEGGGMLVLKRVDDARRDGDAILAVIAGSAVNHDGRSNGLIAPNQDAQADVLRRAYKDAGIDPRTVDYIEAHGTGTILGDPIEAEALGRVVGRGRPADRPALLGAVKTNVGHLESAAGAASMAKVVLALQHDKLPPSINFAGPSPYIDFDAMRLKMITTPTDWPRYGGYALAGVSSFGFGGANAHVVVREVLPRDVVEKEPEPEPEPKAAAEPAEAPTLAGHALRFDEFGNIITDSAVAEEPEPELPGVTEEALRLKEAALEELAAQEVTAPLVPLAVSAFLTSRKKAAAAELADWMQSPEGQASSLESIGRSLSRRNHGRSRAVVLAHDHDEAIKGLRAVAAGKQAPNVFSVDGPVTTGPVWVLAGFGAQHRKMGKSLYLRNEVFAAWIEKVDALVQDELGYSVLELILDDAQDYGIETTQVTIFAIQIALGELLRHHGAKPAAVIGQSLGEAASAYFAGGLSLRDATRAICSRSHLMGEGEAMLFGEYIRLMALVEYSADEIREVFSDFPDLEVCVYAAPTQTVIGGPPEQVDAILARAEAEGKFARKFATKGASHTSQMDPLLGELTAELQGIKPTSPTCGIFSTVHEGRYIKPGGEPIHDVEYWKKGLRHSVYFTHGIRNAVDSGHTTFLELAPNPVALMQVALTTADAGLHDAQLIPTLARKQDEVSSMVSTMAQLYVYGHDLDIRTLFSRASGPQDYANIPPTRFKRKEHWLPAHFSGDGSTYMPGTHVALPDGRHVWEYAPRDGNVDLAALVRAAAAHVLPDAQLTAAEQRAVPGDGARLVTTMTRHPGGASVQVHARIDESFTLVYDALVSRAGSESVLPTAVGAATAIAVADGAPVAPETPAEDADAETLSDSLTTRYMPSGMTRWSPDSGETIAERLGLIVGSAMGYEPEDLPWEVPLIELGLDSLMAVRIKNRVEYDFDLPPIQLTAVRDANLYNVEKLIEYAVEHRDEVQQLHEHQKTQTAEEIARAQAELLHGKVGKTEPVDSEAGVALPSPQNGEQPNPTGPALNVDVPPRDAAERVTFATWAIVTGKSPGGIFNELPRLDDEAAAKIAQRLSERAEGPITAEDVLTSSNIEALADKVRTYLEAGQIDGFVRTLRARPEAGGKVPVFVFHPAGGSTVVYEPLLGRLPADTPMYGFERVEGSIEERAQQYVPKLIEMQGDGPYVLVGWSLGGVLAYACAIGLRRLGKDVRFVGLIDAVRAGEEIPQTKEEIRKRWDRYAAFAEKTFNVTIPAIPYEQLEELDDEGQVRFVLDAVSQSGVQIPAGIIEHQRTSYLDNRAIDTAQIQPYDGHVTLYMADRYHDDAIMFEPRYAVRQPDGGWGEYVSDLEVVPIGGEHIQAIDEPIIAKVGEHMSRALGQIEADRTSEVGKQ
Sequence of Protein translocase subunit SecA (P10408 whole entry): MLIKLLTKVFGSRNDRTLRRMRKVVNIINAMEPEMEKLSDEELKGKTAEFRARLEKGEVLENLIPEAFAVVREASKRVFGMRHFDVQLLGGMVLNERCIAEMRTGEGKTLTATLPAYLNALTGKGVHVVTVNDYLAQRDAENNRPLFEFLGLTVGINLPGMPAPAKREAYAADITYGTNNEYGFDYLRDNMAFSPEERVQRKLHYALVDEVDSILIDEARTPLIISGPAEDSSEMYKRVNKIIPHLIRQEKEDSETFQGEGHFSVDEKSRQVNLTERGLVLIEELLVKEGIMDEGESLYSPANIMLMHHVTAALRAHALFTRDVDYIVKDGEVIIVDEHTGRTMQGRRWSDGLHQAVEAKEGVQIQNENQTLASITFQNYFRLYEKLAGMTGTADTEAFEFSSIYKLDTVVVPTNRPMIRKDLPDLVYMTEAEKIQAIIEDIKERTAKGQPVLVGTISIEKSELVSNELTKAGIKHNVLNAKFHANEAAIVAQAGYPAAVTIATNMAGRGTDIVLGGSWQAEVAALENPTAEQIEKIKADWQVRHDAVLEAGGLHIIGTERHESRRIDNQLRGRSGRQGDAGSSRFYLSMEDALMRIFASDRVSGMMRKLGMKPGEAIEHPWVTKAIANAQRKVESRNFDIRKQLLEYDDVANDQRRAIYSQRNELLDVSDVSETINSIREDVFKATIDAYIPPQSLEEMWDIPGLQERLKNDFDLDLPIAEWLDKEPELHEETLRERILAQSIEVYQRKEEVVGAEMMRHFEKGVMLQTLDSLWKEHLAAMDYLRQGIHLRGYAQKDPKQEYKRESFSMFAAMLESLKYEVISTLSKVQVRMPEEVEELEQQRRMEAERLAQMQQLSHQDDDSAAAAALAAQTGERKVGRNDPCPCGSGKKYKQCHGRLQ
Sequence of Chromo domain-containing protein 1 (P32657 whole entry, the tested form may be a part): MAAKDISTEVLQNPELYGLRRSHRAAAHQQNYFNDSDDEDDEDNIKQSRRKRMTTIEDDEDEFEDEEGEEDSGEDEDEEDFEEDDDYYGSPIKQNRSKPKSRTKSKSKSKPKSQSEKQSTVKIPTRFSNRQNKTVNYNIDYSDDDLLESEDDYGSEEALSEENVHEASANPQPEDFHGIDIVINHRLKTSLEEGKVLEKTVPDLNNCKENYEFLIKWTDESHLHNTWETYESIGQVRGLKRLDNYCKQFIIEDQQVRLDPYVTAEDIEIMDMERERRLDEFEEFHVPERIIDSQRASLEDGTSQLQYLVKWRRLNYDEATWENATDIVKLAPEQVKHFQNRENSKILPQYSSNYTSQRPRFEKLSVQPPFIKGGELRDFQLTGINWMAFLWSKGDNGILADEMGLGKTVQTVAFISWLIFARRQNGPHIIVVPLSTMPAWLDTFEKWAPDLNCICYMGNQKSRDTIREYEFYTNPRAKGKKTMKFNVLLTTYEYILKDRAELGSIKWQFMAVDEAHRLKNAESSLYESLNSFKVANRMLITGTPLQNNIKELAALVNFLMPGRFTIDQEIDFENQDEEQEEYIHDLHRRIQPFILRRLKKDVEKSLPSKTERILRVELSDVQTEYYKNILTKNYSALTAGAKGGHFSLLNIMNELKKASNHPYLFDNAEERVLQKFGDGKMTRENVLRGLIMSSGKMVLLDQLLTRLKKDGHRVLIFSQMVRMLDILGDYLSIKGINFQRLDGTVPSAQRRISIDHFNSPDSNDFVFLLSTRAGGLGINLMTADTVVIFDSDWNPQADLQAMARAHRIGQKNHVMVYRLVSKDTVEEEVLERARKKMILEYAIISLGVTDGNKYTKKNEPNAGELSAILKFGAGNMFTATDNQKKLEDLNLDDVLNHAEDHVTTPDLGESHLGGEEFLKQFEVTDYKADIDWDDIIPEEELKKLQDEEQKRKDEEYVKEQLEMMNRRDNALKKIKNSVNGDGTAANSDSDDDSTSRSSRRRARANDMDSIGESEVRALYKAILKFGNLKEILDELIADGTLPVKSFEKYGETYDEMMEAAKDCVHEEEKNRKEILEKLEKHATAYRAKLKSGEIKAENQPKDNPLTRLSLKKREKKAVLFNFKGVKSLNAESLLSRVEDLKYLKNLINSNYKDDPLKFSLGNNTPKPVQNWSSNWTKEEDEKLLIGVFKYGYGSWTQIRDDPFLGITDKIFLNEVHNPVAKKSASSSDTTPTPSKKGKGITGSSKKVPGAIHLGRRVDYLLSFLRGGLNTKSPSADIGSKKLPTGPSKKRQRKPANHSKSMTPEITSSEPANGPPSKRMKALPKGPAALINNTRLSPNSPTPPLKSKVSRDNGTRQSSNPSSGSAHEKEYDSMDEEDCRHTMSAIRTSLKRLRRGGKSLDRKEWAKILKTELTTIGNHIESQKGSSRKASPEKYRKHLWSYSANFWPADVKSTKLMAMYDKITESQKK
Sequence of Lysine--tRNA ligase (Q8IDJ8 whole entry): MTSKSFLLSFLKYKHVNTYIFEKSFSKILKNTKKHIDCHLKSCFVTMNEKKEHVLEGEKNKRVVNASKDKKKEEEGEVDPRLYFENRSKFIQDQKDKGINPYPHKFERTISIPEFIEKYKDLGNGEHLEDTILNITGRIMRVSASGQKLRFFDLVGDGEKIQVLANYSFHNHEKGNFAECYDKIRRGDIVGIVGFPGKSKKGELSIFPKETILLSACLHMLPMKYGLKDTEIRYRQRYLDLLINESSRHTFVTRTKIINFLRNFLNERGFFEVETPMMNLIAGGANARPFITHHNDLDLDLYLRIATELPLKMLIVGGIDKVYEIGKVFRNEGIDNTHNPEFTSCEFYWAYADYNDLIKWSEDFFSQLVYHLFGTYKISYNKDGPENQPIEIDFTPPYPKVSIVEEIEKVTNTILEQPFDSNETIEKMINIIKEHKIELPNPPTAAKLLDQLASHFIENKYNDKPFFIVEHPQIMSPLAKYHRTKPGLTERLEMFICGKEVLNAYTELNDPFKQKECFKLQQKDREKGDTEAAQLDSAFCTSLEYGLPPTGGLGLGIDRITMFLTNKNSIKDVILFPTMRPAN

Q: For `CC1=Nc2c(c(=O)[nH]n2C2CCOCC2)C(c2cccc(Br)c2)S1` (stereo not given), which IC50 [1] is on record?
A: Its IC50 is over 100 µM.

Q: With `O=C1CSC(c2ccsc2)c2c(n(C3CCOCC3)[nH]c2=O)N1` (stereo not given) as the compound, how does the IC50 [1] read?
A: Its IC50 is over 100 µM.

Q: With `CC1(C)OCC(CNC(=O)c2cnn(-c3cc(Cl)ccc3Cl)c2N)O1` (stereo not given) as the compound, how does the IC50 [2] read?
A: Its IC50 is over 100 µM.

Q: Which IC50 [2] does the source give for `COc1ccc(-n2ncc(C(=O)NCC3COC(C)(C)O3)c2N)cc1` (stereo not given) here?
A: The IC50 was over 100 µM.

Q: Which IC50 [1] does the source give for `O=C(Cn1ccc2c(Cl)cccc21)N1CCC2(CC1)OCCO2` here?
A: The IC50 was over 100 µM.

Q: Which results are given for `COC(=O)Cn1cccc(S(=O)(=O)N2CCC(C)CC2)c1=O`?
A: IC50 [1]: > 100 µM; IC50 [3]: > 100 µM

Q: For `O=C(Cn1nc2c(cc1=O)CSCC2)NC(Cc1ccccc1)C(=O)O` (stereo not given), which IC50 [1] is on record?
A: The IC50 was over 100 µM.

Q: Which results are given for `O=c1[nH]c2c(c(=O)n1C1CCCCC1)CCC2Nc1ccccc1Cl` (stereo not given)?
A: IC50 [1]: > 100 µM; IC50 (Lysine--tRNA ligase): 14 µM

Q: With `CNC(=O)[C@H]1C[C@@H]2CN(C(=O)c3ccco3)C[C@@H]2N1S(C)(=O)=O` as the compound, how does the IC50 [1] read?
A: Its IC50 is over 100 µM.

Q: With `CCn1c(NCc2ccco2)nc2c(C)nn(C)c2c1=O` as the compound, how does the IC50 [1] read?
A: The IC50 was over 100 µM.

Q: Which results are given for `O=C(CO)N1CCC(c2cncc(-c3cccc(Cl)c3)n2)CC1`?
A: IC50 [4]: > 30.2 µM; IC50 [1]: > 100 µM

Q: For `CN(C)c1ncc(CN2CCOC(C(=O)Nc3ccccc3)C2)cn1` (stereo not given), which IC50 [1] is on record?
A: The IC50 was over 100 µM.

Q: For `COc1cccc(CNCc2nnc3n2CC(C(F)(F)F)CC3)c1` (stereo not given), which IC50 [1] is on record?
A: The IC50 was over 100 µM.

Q: With `C[S+]([O-])CCCNC(=O)c1cc(Br)c2c(c1)OCCO2` (stereo not given) as the compound, how does the IC50 [1] read?
A: The IC50 was over 100 µM.

Q: For `CS(=O)(=O)NCC(=O)N1CCCC1c1noc(C2CC2)n1` (stereo not given), which IC50 [1] is on record?
A: The IC50 was over 100 µM.

Q: For `O=C(COc1cccc(Br)c1)N1CCN(c2nccs2)CC1`, which IC50 [5] is on record?
A: Its IC50 is over 29.5 µM.

Q: And the IC50 [1]?
A: The IC50 was over 100 µM.

Q: Which IC50 [1] does the source give for `CCN(C)c1ccc(C(=O)N(CCOC)Cc2ccccn2)cc1` here?
A: Its IC50 is over 100 µM.

Q: Which IC50 [1] does the source give for `O=C(NCc1ccncc1)N(Cc1ccccc1F)C1CC1` here?
A: The IC50 was over 100 µM.

Q: Which IC50 [1] does the source give for `Cc1nn(CCO)c(C)c1CNC1CCc2c(Cl)cccc21` (stereo not given) here?
A: Its IC50 is over 100 µM.

Q: With `Cc1cc(S(=O)(=O)Nc2cccc(-n3cccc3)c2)sc1C(=O)O` as the compound, how does the IC50 [4] read?
A: The IC50 was over 30.2 µM.

Q: What about the pIC50 [6] of the same compound?
A: Its pIC50 is under 4.

Q: What about the IC50 (Proteasome subunit beta) of the same compound?
A: The IC50 was 16.4 µM and 18.9 µM.

Q: And the IC50 [3]?
A: The IC50 was 2.38 µM and 0.803 µM.

Q: With `Cc1cnc(CN(Cc2ccccc2)CC(O)c2cccs2)cn1` (stereo not given) as the compound, how does the IC50 [1] read?
A: The IC50 was over 100 µM.

Q: With `COc1ccc(-c2nc(CN3CC(n4cc(C)cn4)C3)no2)cc1` as the compound, how does the IC50 [7] read?
A: The IC50 was 39.7 µM.

Q: What about the IC50 [8] of the same compound?
A: The IC50 was 47 µM.

Q: And the IC50 [1]?
A: Its IC50 is over 100 µM.

Q: What does the source list for `Cc1cc(N2CCN(CC(=O)N(C)C)CC2)nc(-c2ccncc2)n1`?
A: IC50 (Histidine--tRNA ligase): > 100 µM; pIC50 [6]: < 4; IC50 (Proteasome subunit beta): > 100 µM

Q: Which IC50 [1] does the source give for `Cc1nc(CCNC(=O)N2CCC(Cc3cnn(C)c3)C2)cs1` (stereo not given) here?
A: Its IC50 is over 100 µM.
